This is an account of results in the supplement of paper PMC10307832.

What all share (assay): relative viability (nuclei count vs DMSO), 5 days (fraction); higher = more cells survive
Compound in the assay “RO-3306 + Luminespib”: C1=CC2=C(C=CC(=C2)C=C3C(=O)NC(=NCC4=CC=CS4)S3)N=C1 [RO-3306] + CCNC(=O)c1noc(-c2cc(C(C)C)c(O)cc2O)c1-c1ccc(CN2CCOCC2)cc1 [Luminespib] (partner 0.01 µM)
In outline: (§1)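 Values are medians from duplicate plates. Each reflects relative viability, defined as the nuclei count of treated wells over that of vehicle wells. Lung cancer cell lines in 1536-well plates were pin-tool dosed one day after seeding with one drug alone or with a fixed anchor-drug dose plus five library-drug doses (not always all listed) in √10 steps, then fixed, stained and imaged at 4× after 5 days.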

Compound in the assay “RO-3306 + OSI-027”: C1=CC2=C(C=CC(=C2)C=C3C(=O)NC(=NCC4=CC=CS4)S3)N=C1 [RO-3306] + COc1cccc2cc(-c3nc([C@H]4CC[C@H](C(=O)O)CC4)n4ncnc(N)c34)[nH]c12 [OSI-027] (partner 0.5 µM)
In outline:
as §1

Compound in the assay “RO-3306 + Lapatinib”: C1=CC2=C(C=CC(=C2)C=C3C(=O)NC(=NCC4=CC=CS4)S3)N=C1 [RO-3306] + CS(=O)(=O)CCNCc1ccc(-c2ccc3ncnc(Nc4ccc(OCc5cccc(F)c5)c(Cl)c4)c3c2)o1 [Lapatinib] (partner 2 µM)
The gist of the method: as §1

Compound in assay [1]: O=S(=O)(c1ccccc1)N(CC(F)(F)F)c1ccc(C(O)(C(F)(F)F)C(F)(F)F)cc1 + CC(=O)c1c(C)c2cnc(Nc3ccc(N4CCNCC4)cn3)nc2n(C2CCCC2)c1=O [Palbociclib] (partner 0.5 µM)
In outline: as §1

As for NCI-H2228, the relative viability with RO-3306 + Luminespib (first compound 0.01 µM) was 0.2; with RO-3306 + Luminespib (first compound 0.03162 µM) it was 0.148; in the assay with RO-3306 + Luminespib (first compound 0.1 µM), 0.147; with RO-3306 + Luminespib (first compound 0.3162 µM), 0.14; with RO-3306 + Luminespib (first compound 1 µM), 0.255; with RO-3306 + OSI-027 (first compound 0.01 µM), 0.652. In addition, the relative viability with RO-3306 + OSI-027 (first compound 0.03162 µM) was 0.411; with RO-3306 + OSI-027 (first compound 0.1 µM), 0.557; with RO-3306 + OSI-027 (first compound 0.3162 µM), 0.685; in the assay with RO-3306 + OSI-027 (first compound 1 µM), 0.429; with RO-3306 + Lapatinib (first compound 0.01 µM), 1.24; with RO-3306 + Lapatinib (first compound 0.03162 µM) it was 0.574. In addition, the relative viability is 0.942 with RO-3306 + Lapatinib (first compound 0.1 µM); 0.826 with RO-3306 + Lapatinib (first compound 0.3162 µM); 0.542 with RO-3306 + Lapatinib (first compound 1 µM); 0.989 in assay [1] (first compound 0.8 µM); 0.639 in assay [1] (first compound 2.53 µM); 0.722 in assay [1] (first compound 8 µM).
Turning to NCI-H1437, the relative viability with RO-3306 + Luminespib (first compound 0.01 µM) worked out at 1.17; with RO-3306 + Luminespib (first compound 0.03162 µM), 1.02; with RO-3306 + Luminespib (first compound 0.1 µM), 1.09; with RO-3306 + Luminespib (first compound 0.3162 µM), 1.11; with RO-3306 + Luminespib (first compound 1 µM), 1.17; with RO-3306 + OSI-027 (first compound 0.01 µM), 0.936. For the same cell line, the relative viability in the assay with RO-3306 + OSI-027 (first compound 0.03162 µM) came out at 0.814; in the assay with RO-3306 + OSI-027 (first compound 0.1 µM), 0.825; with RO-3306 + OSI-027 (first compound 0.3162 µM) it was 0.912; with RO-3306 + OSI-027 (first compound 1 µM) it was 0.878; in the assay with RO-3306 + Lapatinib (first compound 0.01 µM), 0.835; in the assay with RO-3306 + Lapatinib (first compound 0.03162 µM), 0.543. Further, the relative viability with RO-3306 + Lapatinib (first compound 0.1 µM) came out at 0.788; with RO-3306 + Lapatinib (first compound 0.3162 µM), 0.794; in the assay with RO-3306 + Lapatinib (first compound 1 µM), 0.772; in assay [1] (first compound 0.8 µM) it was 0.308; in assay [1] (first compound 2.53 µM), 0.268; in assay [1] (first compound 8 µM), 0.304.
Take NCI-H1792: the relative viability in the assay with RO-3306 + Luminespib (first compound 0.01 µM) turned out to be 0.587; with RO-3306 + Luminespib (first compound 0.1 µM), 0.568; in the assay with RO-3306 + Luminespib (first compound 0.3162 µM) it was 0.349; in the assay with RO-3306 + Luminespib (first compound 1 µM), 0.341; with RO-3306 + OSI-027 (first compound 0.01 µM), 0.896; with RO-3306 + OSI-027 (first compound 0.1 µM) it was 0.743. Also, the relative viability with RO-3306 + OSI-027 (first compound 0.3162 µM) was determined as 0.81; in the assay with RO-3306 + OSI-027 (first compound 1 µM), 0.551; with RO-3306 + Lapatinib (first compound 0.01 µM), 0.971; with RO-3306 + Lapatinib (first compound 0.1 µM) it was 0.881; with RO-3306 + Lapatinib (first compound 0.3162 µM), 0.903; in the assay with RO-3306 + Lapatinib (first compound 1 µM), 0.499. For the same cell line, the results for the relative viability in assay [1] (first compound 0.8 µM), in assay [1] (first compound 2.53 µM) and in assay [1] (first compound 8 µM) were 0.614, 0.549 and 0.453, respectively.
Consider LOU-NH91, for which the relative viability in the assay with RO-3306 + Luminespib (first compound 0.01 µM) came to 0.348; in the assay with RO-3306 + Luminespib (first compound 0.03162 µM), 0.298; in the assay with RO-3306 + Luminespib (first compound 0.1 µM), 0.312; with RO-3306 + Luminespib (first compound 0.3162 µM), 0.28; with RO-3306 + Luminespib (first compound 1 µM), 0.291; with RO-3306 + OSI-027 (first compound 0.01 µM), 0.686. Also, the relative viability worked out at 0.712 with RO-3306 + OSI-027 (first compound 0.03162 µM); 0.711 in the assay with RO-3306 + OSI-027 (first compound 0.1 µM); 0.719 with RO-3306 + OSI-027 (first compound 0.3162 µM); 0.686 with RO-3306 + OSI-027 (first compound 1 µM); 0.692 with RO-3306 + Lapatinib (first compound 0.01 µM); 0.739 with RO-3306 + Lapatinib (first compound 0.03162 µM). The relative viability came out at 0.811 with RO-3306 + Lapatinib (first compound 0.1 µM); 0.771 with RO-3306 + Lapatinib (first compound 0.3162 µM); 0.677 with RO-3306 + Lapatinib (first compound 1 µM); 0.524 in assay [1] (first compound 0.8 µM); 0.527 in assay [1] (first compound 2.53 µM); 0.561 in assay [1] (first compound 8 µM).
As to LC-2-ad, the relative viability turned out to be 1.01 with RO-3306 + Luminespib (first compound 0.01 µM); 0.907 in the assay with RO-3306 + Luminespib (first compound 0.03162 µM); 0.966 with RO-3306 + Luminespib (first compound 0.1 µM); 1.09 in the assay with RO-3306 + Luminespib (first compound 0.3162 µM); 1.02 with RO-3306 + Luminespib (first compound 1 µM); 0.863 with RO-3306 + OSI-027 (first compound 0.01 µM). The relative viability with RO-3306 + OSI-027 (first compound 0.03162 µM) was found to be 0.735; with RO-3306 + OSI-027 (first compound 0.1 µM), 0.781; in the assay with RO-3306 + OSI-027 (first compound 0.3162 µM), 0.932; with RO-3306 + OSI-027 (first compound 1 µM) it was 0.849; in the assay with RO-3306 + Lapatinib (first compound 0.01 µM), 0.949; with RO-3306 + Lapatinib (first compound 0.03162 µM) it was 0.979. Moreover, the relative viability in the assay with RO-3306 + Lapatinib (first compound 0.1 µM) was determined as 0.868; with RO-3306 + Lapatinib (first compound 0.3162 µM), 0.948; in the assay with RO-3306 + Lapatinib (first compound 1 µM) it was 0.883; in assay [1] (first compound 0.8 µM), 0.53; in assay [1] (first compound 2.53 µM) it was 0.501; in assay [1] (first compound 8 µM) it was 0.422.
For PC-3 [JPC-3], the relative viability in the assay with RO-3306 + Luminespib (first compound 0.01 µM) turned out to be 0.642; with RO-3306 + Luminespib (first compound 0.03162 µM) it was 0.638; with RO-3306 + Luminespib (first compound 0.1 µM) it was 0.778; with RO-3306 + Luminespib (first compound 0.3162 µM) it was 0.667; in the assay with RO-3306 + Luminespib (first compound 1 µM), 0.864; in the assay with RO-3306 + OSI-027 (first compound 0.01 µM), 0.851. The relative viability with RO-3306 + OSI-027 (first compound 0.03162 µM) is 0.718; with RO-3306 + OSI-027 (first compound 0.1 µM) it was 0.787; with RO-3306 + OSI-027 (first compound 0.3162 µM) it was 0.681; with RO-3306 + OSI-027 (first compound 1 µM) it was 0.741; with RO-3306 + Lapatinib (first compound 0.01 µM), 0.469; in the assay with RO-3306 + Lapatinib (first compound 0.03162 µM), 0.445. For the same cell line, the relative viability came out at 0.389 with RO-3306 + Lapatinib (first compound 0.1 µM); 0.439 in the assay with RO-3306 + Lapatinib (first compound 0.3162 µM); 0.435 with RO-3306 + Lapatinib (first compound 1 µM); 0.381 in assay [1] (first compound 2.53 µM); 0.532 in assay [1] (first compound 8 µM).
Turning to NCI-H1734, the relative viability in the assay with RO-3306 + Luminespib (first compound 0.01 µM) turned out to be 0.168; with RO-3306 + Luminespib (first compound 0.03162 µM) it was 0.172; in the assay with RO-3306 + Luminespib (first compound 0.1 µM), 0.205; with RO-3306 + Luminespib (first compound 0.3162 µM) it was 0.195; in the assay with RO-3306 + Luminespib (first compound 1 µM) it was 0.171; with RO-3306 + OSI-027 (first compound 0.01 µM), 0.653. Besides, the relative viability with RO-3306 + OSI-027 (first compound 0.03162 µM) came out at 0.582; in the assay with RO-3306 + OSI-027 (first compound 0.1 µM), 0.529; in the assay with RO-3306 + OSI-027 (first compound 0.3162 µM) it was 0.615; with RO-3306 + OSI-027 (first compound 1 µM) it was 0.514; with RO-3306 + Lapatinib (first compound 0.01 µM), 1.06; in the assay with RO-3306 + Lapatinib (first compound 0.03162 µM), 0.834. Besides, the relative viability was found to be 1.03 with RO-3306 + Lapatinib (first compound 0.1 µM); 1.07 with RO-3306 + Lapatinib (first compound 0.3162 µM); 0.808 with RO-3306 + Lapatinib (first compound 1 µM); 0.348 in assay [1] (first compound 0.8 µM); 0.363 in assay [1] (first compound 2.53 µM); 0.326 in assay [1] (first compound 8 µM).
On to NCI-H520, for which the relative viability with RO-3306 + Luminespib (first compound 0.01 µM) was determined as 0.252; in the assay with RO-3306 + Luminespib (first compound 0.03162 µM), 0.212; with RO-3306 + Luminespib (first compound 0.1 µM), 0.249; with RO-3306 + Luminespib (first compound 0.3162 µM), 0.218; in the assay with RO-3306 + Luminespib (first compound 1 µM) it was 0.23; in the assay with RO-3306 + OSI-027 (first compound 0.01 µM), 0.288. Also, the relative viability was 0.283 in the assay with RO-3306 + OSI-027 (first compound 0.03162 µM); 0.225 with RO-3306 + OSI-027 (first compound 0.1 µM); 0.254 in the assay with RO-3306 + OSI-027 (first compound 0.3162 µM); 0.304 with RO-3306 + OSI-027 (first compound 1 µM); 1.01 with RO-3306 + Lapatinib (first compound 0.01 µM); 0.638 with RO-3306 + Lapatinib (first compound 0.03162 µM). Besides, the relative viability came out at 0.806 in the assay with RO-3306 + Lapatinib (first compound 0.1 µM); 0.734 with RO-3306 + Lapatinib (first compound 0.3162 µM); 0.754 with RO-3306 + Lapatinib (first compound 1 µM); 0.231 in assay [1] (first compound 0.8 µM); 0.254 in assay [1] (first compound 2.53 µM); 0.236 in assay [1] (first compound 8 µM).
